Where “and” joins values, the source holds several entries; their conditions need not be identical. Equal entries are not always repeated.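 Cells were grown in 96-well plates and exposed to each compound for 48 hours at five concentrations; endpoints were interpolated linearly between bracketing concentrations, or set to the highest concentration if not reached. GI50: concentration for 50% inhibition of growth. TGI is the concentration that stops growth completely.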
Key:
Assay in all cases: NCI-60 cell line screen, 48 h
[1] = test system: UACC-257 melanoma
[2] = test system: KM12 colon
[3] = test system: UO-31 renal
[4] = test system: OVCAR-3 ovarian
[5] = test system: U251 CNS
[6] = test system: A498 renal
[7] = test system: SNB-75 CNS
[8] = test system: ACHN renal
[9] = test system: RXF 393 renal
[10] = test system: DU-145 prostate

SMILES: CC(=O)SC(SC(C)=O)SC(C)=O
- TGI [1]: > 100 µM
- TGI [2]: > 100 µM
- TGI [3]: > 100 µM
- TGI [4]: > 100 µM
- TGI [5]: > 100 µM
- TGI [6]: > 100 µM
- TGI [7]: > 100 µM
- TGI [8]: > 100 µM
- TGI [9]: > 100 µM

SMILES: CCC1c2cc3n(c(=O)c2COC1O)Cc1c-3nc2ccccc2c1Cl (stereo not given)
- TGI [1]: > 100 µM
- TGI [2]: > 100 µM
- TGI [3]: > 100 µM
- TGI [4]: > 100 µM
- TGI [5]: > 100 µM
- TGI [6]: > 100 µM
- TGI [7]: > 100 µM
- TGI [8]: > 84 µM
- TGI [9]: > 100 µM

SMILES: COc1cc(/C=C/C(=O)c2c(C)nc3ccccc3c2C)ccc1OCCCCOc1cc2c(cc1OC)C(=O)N1CCC[C@H]1C=N2
- GI50 [1]: 0.261 µM
- TGI [1]: 0.822 µM
- GI50 [2]: 0.308 µM
- TGI [2]: 0.839 µM
- GI50 [10]: 0.368 µM
- TGI [10]: 1.13 µM
- GI50 [3]: 0.252 µM
- TGI [3]: 1.08 µM
- GI50 [4]: 0.217 µM
- TGI [4]: 0.631 µM
- GI50 [5]: 0.305 µM
- TGI [5]: 0.955 µM
- GI50 [6]: 0.286 µM
- TGI [6]: 0.779 µM
- GI50 [7]: 0.334 µM
- TGI [7]: 0.929 µM
- GI50 [8]: 1.46 µM
- TGI [8]: 3.22 µM

SMILES: COc1cc(C2C(C(=O)O)=C(COC(C)=O)Oc3cc4c(cc32)OCO4)cc(OC)c1OC(C)=O (stereo not given)
- TGI [1]: > 100 µM
- TGI [3]: > 100 µM
- TGI [4]: > 100 µM
- TGI [5]: > 100 µM
- TGI [7]: > 100 µM
- TGI [8]: > 100 µM
- TGI [9]: > 100 µM

SMILES: COC(=O)c1nc(C(=O)OC)c2c([nH]c3ccccc32)c1C(=O)OC
- TGI [1]: > 100 µM
- TGI [2]: > 100 µM
- TGI [3]: 75.9 µM
- TGI [4]: > 100 µM
- TGI [5]: > 100 µM
- TGI [6]: > 100 µM
- TGI [7]: > 100 µM
- TGI [9]: > 100 µM

SMILES: O=C(Cc1ccccc1)N/N=C(/c1nc2ccc([N+](=O)[O-])cc2[nH]c1=O)C(O)c1ccccc1Cl (stereo not given)
- TGI [1]: > 100 µM
- TGI [2]: > 100 µM
- TGI [3]: > 100 µM
- TGI [5]: > 100 µM
- TGI [6]: > 100 µM
- TGI [7]: > 100 µM
- TGI [8]: > 100 µM

SMILES: O=C1NC(=O)C2C1C1C=C3c4ccccc4N(c4ccccc4)C32[C@H]2C(=O)NC(=O)[C@@H]12 (stereo not given in full)
- TGI [1]: > 100 µM
- TGI [2]: > 100 µM
- TGI [3]: > 100 µM
- TGI [4]: > 100 µM
- TGI [6]: > 100 µM
- TGI [7]: > 100 µM
- TGI [8]: > 100 µM

SMILES: CCc1nc2ccccc2c(=O)n1/N=C(\N=Nc1ccc(Cl)cc1)c1ccccc1
- TGI [1]: 59.6 µM
- TGI [2]: 34.7 µM
- TGI [3]: 76.8 µM
- TGI [4]: 57.1 µM
- TGI [5]: > 87.8 µM
- TGI [6]: > 100 µM
- TGI [7]: 40.1 µM
- TGI [8]: > 92.4 µM
- TGI [9]: > 75.8 µM

SMILES: C#CCn1c(=O)c2cccnc2n(CC#C)c1=O
- TGI [1]: > 100 µM
- TGI [2]: > 100 µM
- TGI [5]: > 100 µM
- TGI [7]: > 100 µM
- TGI [8]: > 100 µM
- TGI [9]: > 100 µM

SMILES: O=C(O)CCC1CCc2cccc(OCC(=O)O)c2C1=O (stereo not given)
- TGI [1]: > 100 µM
- TGI [4]: > 100 µM
- TGI [5]: > 100 µM
- TGI [6]: > 100 µM
- TGI [7]: > 100 µM
- TGI [8]: > 100 µM
- TGI [9]: > 100 µM

SMILES: CC(C)(CN1CCCCC1)C(=O)CC(SCCN)c1ccc(Cl)cc1 (stereo not given)
- TGI [1]: 7.41 µM
- TGI [2]: 5.23 µM
- TGI [3]: 13.3 µM
- TGI [4]: 3.96 µM
- TGI [5]: 11.7 µM
- TGI [6]: 6.65 µM
- TGI [7]: 5.59 µM
- TGI [8]: 9.85 µM
- TGI [9]: 5.94 µM

SMILES: CCCCN(CCCC)CC(C(=O)Nc1ccc([N+](=O)[O-])cc1[N+](=O)[O-])/C(C)=N\NC(=O)C[N+](C)(C)C (stereo not given)
- TGI [1]: > 100 µM
- TGI [2]: > 100 µM
- TGI [3]: > 100 µM
- TGI [4]: > 100 µM
- TGI [5]: > 100 µM
- TGI [6]: > 100 µM
- TGI [7]: > 100 µM
- TGI [8]: > 100 µM
- TGI [9]: > 100 µM

SMILES: Cc1ccc(NC(=O)/C(=N\NC(N)=S)C(C#N)c2ccccc2C)cc1C (stereo not given)
- TGI [1]: > 100 µM
- TGI [2]: > 100 µM
- TGI [3]: > 100 µM
- TGI [4]: > 100 µM
- TGI [5]: > 100 µM
- TGI [6]: > 100 µM
- TGI [7]: > 100 µM
- TGI [8]: > 100 µM

SMILES: O=[N+]([O-])c1ccc(/C(Cl)=C/c2ccc(/C=C(\Cl)c3ccc([N+](=O)[O-])cc3[N+](=O)[O-])cc2)c([N+](=O)[O-])c1
- TGI [1]: > 100 µM
- TGI [3]: > 100 µM
- TGI [5]: > 100 µM
- TGI [6]: > 100 µM
- TGI [7]: > 100 µM
- TGI [8]: > 100 µM
- TGI [9]: > 100 µM

SMILES: N#CC(/C(=N/NC(N)=S)C(=O)Nc1cccc(Cl)c1)c1ccccc1 (stereo not given)
- TGI [1]: > 100 µM
- TGI [2]: > 100 µM
- TGI [3]: > 100 µM
- TGI [4]: > 100 µM
- TGI [5]: > 100 µM
- TGI [6]: > 100 µM
- TGI [7]: > 100 µM
- TGI [8]: > 100 µM

SMILES: O=C(/C=C/c1nnc2n(Cc3ccccc3)c(=O)c3c4c(sc3n12)CCCC4)c1ccccc1
- GI50 [2]: 4.1 µM
- GI50 [10]: > 100 µM
- TGI [10]: > 100 µM
- GI50 [3]: 3.06 µM
- GI50 [5]: 2.22 µM
- TGI [5]: 7.76 µM
- GI50 [6]: > 100 µM
- TGI [6]: > 100 µM
- GI50 [7]: 21.3 µM
- TGI [7]: 91.2 µM
- GI50 [8]: 3.9 µM

SMILES: CCC(C)CC(C)C(=O)c1c(O)ccn(O)c1=O (stereo not given)
- GI50 [1]: 2.52 µM
- TGI [1]: 8.38 µM
- GI50 [2]: 3.37 µM
- TGI [2]: > 100 µM
- GI50 [10]: 2.1 µM
- TGI [10]: > 100 µM
- GI50 [3]: 0.376 µM
- TGI [3]: 4.31 µM
- GI50 [4]: 0.415 µM
- TGI [4]: 45.3 µM
- GI50 [5]: 2.14 µM
- TGI [5]: > 100 µM
- GI50 [7]: 4.12 µM
- TGI [7]: > 100 µM
- GI50 [8]: 0.775 µM
- TGI [8]: > 100 µM
- GI50 [9]: 2.33 µM
- TGI [9]: > 100 µM

SMILES: CC(=O)N(CCN1C(=O)c2ccccc2C1=O)CCN1C(=O)c2ccccc2C1=O
- TGI [1]: > 100 µM
- TGI [2]: > 100 µM
- TGI [3]: > 100 µM
- TGI [4]: > 100 µM
- TGI [5]: > 100 µM
- TGI [6]: > 100 µM
- TGI [7]: > 100 µM
- TGI [8]: > 100 µM
- TGI [9]: > 100 µM

SMILES: NC(CO)c1ccc(OCc2ccccc2)cc1 (stereo not given)
- TGI [1]: > 100 µM
- TGI [2]: > 100 µM
- TGI [3]: > 100 µM
- TGI [4]: > 100 µM
- TGI [5]: > 100 µM
- TGI [6]: > 100 µM
- TGI [7]: 98.9 µM
- TGI [8]: > 100 µM
- TGI [9]: > 100 µM

SMILES: CCOC(=O)Nc1ccc2c(c1)N(C(=O)CCN(CC)CC)c1ccccc1S2
- GI50 [1]: 12.4 µM
- TGI [1]: 32.3 µM and 35.4 µM
- GI50 [2]: 35.9 µM
- TGI [2]: 24.6 µM and 110 µM
- TGI [3]: > 89.5 µM
- GI50 [4]: 42.3 µM
- TGI [4]: > 78.9 µM and 107 µM
- GI50 [5]: 39.8 µM
- TGI [5]: > 72.1 µM and 108 µM
- GI50 [6]: 33.3 µM
- TGI [6]: 58.9 µM and 99.7 µM
- GI50 [7]: 11.7 µM
- TGI [7]: 39.2 µM and 62.7 µM
- TGI [8]: > 95.5 µM
- GI50 [9]: 15.4 µM
- TGI [9]: 64.1 µM and 59.5 µM

SMILES: N#Cc1c2ccccc2c2nnc3ccccc3n12
- GI50 [2]: 48.7 µM
- TGI [2]: > 100 µM
- GI50 [10]: 26.8 µM
- TGI [10]: > 100 µM
- GI50 [3]: 20 µM
- TGI [3]: > 100 µM
- GI50 [4]: 59.7 µM
- TGI [4]: > 100 µM
- GI50 [5]: 17.7 µM
- TGI [5]: 70 µM
- GI50 [7]: 28.3 µM
- TGI [7]: > 100 µM
- GI50 [8]: 19.3 µM
- TGI [8]: 61.2 µM
